This is an account of results in patent publication US12516043B2, “Stiripentol derivative and use thereof” (National University Corporation Okayama University, priority 2020, dated 2026).

Structures are written as SMILES.

A short description of data set [1]: Solubility in lipid (choice of vehicle). The class given is physicochemical.
Data set [2] concerns epileptic seizures in hippocampal sclerosis model mouse. The experiment in a line: Pharmacological effect evaluation using a hippocampal sclerosis model mouse. The class given is in vivo, ICR mice. The procedure: Pharmacological Effect Evaluation by Using a Hippocampal Sclerosis Model Mouse (Compound No. 2, FIG. 11):
Hippocampal sclerosis model mice for use in evaluating anti-epileptic action were prepared according to the literatures already published (Non-Patent Literatures 3 and 13). First, 6-7 week-old ICR mice were each anesthetized with a mixed solution of ketamine (100 mg/kg) and xylazine (40 mg/kg) and fixed to a stereotaxic apparatus. Subsequently, the scalp was removed and a U-shaped plastic frame required for recording electroencephalography in vivo was attached to the head. Then, a small amount of kainic acid (0.8 nmol, 40 nL) for inducing epilepsy was injected to the dorsal hippocampus (1.6 mm posterior to the bregma, 1.6 mm laterally from the center line, 1.4 mm (depth) from the brain surface) via a micro glass electrode and a metal electrode (diameter 200 μm) for measuring epileptic seizures was embedded in the proximity of the injection site of kainic acid. A reference electrode was installed in the cerebellum. Three weeks after the surgery, epileptic seizures spontaneously generated from the hippocampus were measured to evaluate anti-epilepsy action. Each mouse head was immobilized via a U-shaped frame, brain waves of the hippocampus was recorded through an analog filter of 0.5-30 Hz and digitized by an AD converter at a sampling rate of 1 kHz. After baseline brain wave was measured for one hour, a vehicle or Compound No. 2 was orally administered to each mouse by a disposable sonde, and their brain waves were recorded for further 3 hours. Epileptic seizures were analyzed by Igor Pro (WaveMetrics) and epileptic seizures lasting for 8 seconds or more were counted. Statistical analysis was carried out by SigmaPlot (Systat Software).

Data set [3] is described as follows: Pharmacokinetic evaluation by oral administration to a mouse (HPLC/MS of blood plasma). Type of data set: in vivo, ICR mice. The note with it: 50 mg/kg oral, blood plasma thirty minutes later; for in vivo metabolic stability: HPLC (MS for No. 1). The method, then:
Pharmacokinetic evaluation (compounds Nos. 1, 2, 4 and 9, FIGS. 6 to 10) by oral administration to a mouse:
For pharmacokinetic study, 6-7 week-old ICR mice were used in experiments. […] A vehicle or each of the compounds (50 mg/kg) were respectively orally administered to a mouse by a disposable sonde. Thirty minutes later, each mouse was decapitated for sampling their blood. Heparin sodium (10 μg/mL) was added to the blood as an anticoagulant. After each blood sample was centrifuged for 15 minutes (1,000 g, 4° C.), the supernatant was obtained as a blood plasma. Subsequently, to extract a compound, ethyl acetate was added to the obtained blood plasma, air-dried with nitrogen gas, and dissolved again with acetonitrile. The sample pretreated in this manner was subjected to the following analysis (HPLC, MS). In performing the HPLC analysis, constituents of the blood plasma were separated by the HPLC system (manufactured by JASCO Corporation) using a C18 reverse-phase column, at a flow rate of 1.0 mL/min. For analysis of the compound No. 1, a mobile phase consisting of acetonitrile (80%) and water (20%) was used, whereas a mobile phase consisting of acetonitrile (70%) and water (30%) was used for analysis of Compounds No. 2, No. 4 and No. 9. Individual compounds were detected by a UV detector at 295 nm. The data were obtained/analyzed by a software, ChromNAV (manufactured by JASCO Corporation). To identify an unchanged compound within the blood plasma constituents, the compound itself was directly analyzed as a standard substance by HPLC and the retention times of these compounds were compared. In the MS analysis, LC-MS/MS system (Agilent 1200 HPLC-Chip and 6520 Accurate-Mass Q-TOF), manufactured by Agilent Technologies, was used. The pretreated sample was allowed to adsorb onto a C18 chip by use of a mobile phase consisting of acetonitrile (25%) and water (75%) containing formic acid (0.1%), and thereafter, the blood plasma constituents were separated by a mobile phase consisting of acetonitrile (60%) and water (40%) containing formic acid (0.1%). The MS spectrum of the blood plasma constituents separated was detected (obtained) by a mass spectrometer, and data was obtained/analyzed by a software, MassHunter Qualitative Analysis (Agilent Technologies).

The target in data set [4] is human LDH1 (tetramer of LDHB) (Homo sapiens, UniProt P07195). The experiment in a line: Lactate dehydrogenase inhibitory action, enzymatic reaction plus chromogenic reaction (LDH1). The class given is biochemical. The settings on record: FIG. 1B, each n=3. The procedure:
(§1) Evaluation of Lactate Dehydrogenase Inhibitory Action (Compounds Nos. 1 to 10, FIGS. 1 to 5):
(§2) Lactate dehydrogenase catalyzes production of lactic acid and NAD from pyruvic acid and NADH. […] In order to evaluate the enzymatic activity of lactate dehydrogenase, experiments were carried out using an evaluation system (Patent Literature 1, Non-Patent Literature 9) consisting of an enzymatic reaction (step 1) and a chromogenic reaction (step 2). In the enzymatic reaction of step 1, sodium pyruvate (100 μM), NADH (100 μM) and lactate dehydrogenase (human LDH1 or LDH5) were added, further an inhibitor (Compounds Nos. 1 to 10) different in concentration was added. The mixture was subjected to a reaction carried out in the presence of a 100 mM sodium phosphate buffer (pH 7.3, 37° C.) for 60 minutes (200 μL/well). In this stage, absorbance of the background at 492 nm was measured by a plate reader (absorbance before chromogenic reaction). […] INT changed into INT formazan by the action of diaphorase in the presence of NADH, and absorbance of INT formazan at 492 nm was measured by a plate reader (absorbance after chromogenic reaction). […] Then, the absorbance before chromogenic reaction was subtracted from the absorbance after chromogenic reaction. The value obtained by the above calculation was regarded as an “absorbance change value (ΔA)”. […]

Data set [5] concerns the target human LDH5 (tetramer of LDHA) (Homo sapiens, UniProt P00338). The experiment in a line: Lactate dehydrogenase inhibitory action, enzymatic reaction plus chromogenic reaction (LDH5). Type of data set: biochemical. The settings on record: FIG. 1A. The method, then: as §1, §2
Data set [6] deals with lactate dehydrogenase. The settings on record: Non-Patent Literature 3; cited from earlier work.

Sequence of human LDH1 (tetramer of LDHB) (P07195 whole entry): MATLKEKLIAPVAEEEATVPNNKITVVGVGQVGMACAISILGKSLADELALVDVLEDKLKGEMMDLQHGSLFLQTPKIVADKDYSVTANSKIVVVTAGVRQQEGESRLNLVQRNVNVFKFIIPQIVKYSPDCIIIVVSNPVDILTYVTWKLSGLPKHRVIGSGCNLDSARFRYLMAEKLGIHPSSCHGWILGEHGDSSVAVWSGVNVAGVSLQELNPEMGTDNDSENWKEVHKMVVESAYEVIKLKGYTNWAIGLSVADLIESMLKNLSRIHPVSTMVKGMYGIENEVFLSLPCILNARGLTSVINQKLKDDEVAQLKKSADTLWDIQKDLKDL

As for `OC(/C=C/c1ccc2c(c1)OCO2)c1ccc(-c2ccccc2)cc1` (centres unmarked) [Compound No. 2], the solubility in lipid entry in data set [1] is given as “highly soluble in lipid”. Besides, the “epileptic seizure in the hippocampus” value in data set [2] (150 mg/kg oral, 2.5 hours after administration, FIG. 11B) is reported as “suppressed”. The “number of seizures, dose dependency versus vehicle” value in data set [2] (dose of 50 mg/kg oral, 2-3 hours after administration, FIG. 11D, n=11) was “significantly decreases”. In addition, the “number of spontaneous epileptic seizures per hour versus baseline” value in data set [2] (oral, one hour after the administration, FIG. 11C, n=10) is given as “significant decrease”. In addition, in data set [3], the “unchanged compound in the blood after oral administration” value (from here on “unchanged compound in the blood”) was “maintained” and the “in vivo metabolic stability” value is “high”. Further, the “inhibitory activity against LDHB (in words)” value in data set [4] was “almost the same strong inhibitory activity”. Also, the “inhibitory activity against LDHA (in words)” value in data set [5] (n=3, compared with compound No. 1 (5 μM)) is on record as “exert an inhibitory activity at the same concentration”.

On to `CC(C)(C)C(O)/C=C/c1ccc2c(c1)OCO2` (centres unmarked) [stiripentol], for which the “inhibitory action against lactate dehydrogenase” value in data set [6] is “weak”.

For the compound `OC(/C=C/c1ccc2c(c1)OCO2)c1ccc(-c2ccc(F)cc2)cc1` (centres unmarked) [Compound No. 4], the solubility in lipid result in data set [1] is given as “highly soluble in lipid”. Moreover, in data set [3], the “unchanged compound in the blood” value is listed as “maintained” and the “in vivo metabolic stability” value is given as “high”.

Consider `O=C(/C=C/c1ccc2c(c1)OCO2)c1ccc(-c2ccccc2)cc1` [Compound No. 1, reference compound], for which the solubility in lipid entry in data set [1] was “highly soluble in lipid”. In data set [3], the “unchanged compound in the blood” value is reported as “quickly disappears” and the “in vivo metabolic stability” value was “low”. In addition, in data set [4], the “inhibitory activity against LDHB (in words)” value is recorded as “almost the same strong inhibitory activity”. Also, the “concentration at which inhibitory activity against LDHA was exerted” value in data set [5] (n=3) worked out at 5 µM.

Take `OC(/C=C/c1ccc2c(c1)OCO2)c1ccc(-c2ccccc2)cc1F` (centres unmarked) [Compound No. 9]: the solubility in lipid entry in data set [1] is recorded as “highly soluble in lipid”. For the same compound, in data set [3], the “unchanged compound in the blood” value was “maintained” and the “in vivo metabolic stability” value is on record as “high”.
